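Where inhibition never reached the appropriate level, the endpoint shown equals the highest concentration tested. Otherwise, values were interpolated linearly from a five-concentration, 48-hour dose response in 96-well plates. The concentration for 50% growth inhibition is given as GI50. TGI denotes the concentration required for complete inhibition of growth.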
How the values were obtained:
Assay in all cases: inhibition of tumour cell growth, NCI panel, 48 h
[1] = system: IGROV1 ovarian
[2] = system: NCI-H522 lung
[3] = system: SN12C renal
[4] = system: NCI/ADR-RES ovarian
[5] = system: 786-0 renal
[6] = system: OVCAR-4 ovarian
[7] = system: A498 renal
[8] = system: UACC-62 melanoma
[9] = system: U251 CNS
[10] = system: OVCAR-8 ovarian
[11] = system: K-562 leukemia
[12] = system: MDA-MB-435
[13] = system: LOX IMVI melanoma
[14] = system: TK-10 renal
[15] = system: HS 578T breast
[16] = system: MOLT-4 leukemia
[17] = system: PC-3 prostate
[18] = system: T-47D breast
[19] = system: SR leukemia
[20] = system: NCI-H23 lung
[21] = system: HCC-2998 colon
[22] = system: ACHN renal
[23] = system: COLO 205 colon
[24] = system: HCT-15 colon
[25] = system: EKVX NSCLC
[26] = system: HOP-92 NSCLC
[27] = system: SNB-75 CNS
[28] = system: SK-MEL-2 melanoma
[29] = system: A549 NSCLC
[30] = system: SK-OV-3 ovarian
[31] = system: MALME-3M melanoma
[32] = system: DU-145 prostate
[33] = system: RPMI-8226 leukemia
[34] = system: NCI-H460 lung
[35] = system: SW-620 colon
[36] = system: SK-MEL-5 melanoma
[37] = system: MCF7 breast
[38] = system: SF-268 CNS
[39] = system: RXF 393 renal
[40] = system: SF-295 CNS
[41] = system: CAKI-1 renal
[42] = system: HL-60(TB) leukemia
[43] = system: SNB-19 CNS
[44] = system: SF-539 CNS
[45] = system: HCT-116 colon
[46] = system: CCRF-CEM leukemia
[47] = system: KM12 colon
[48] = system: M14 melanoma
[49] = system: UO-31 renal
[50] = system: NCI-H226 lung
[51] = system: MDA-MB-231 breast
[52] = system: SK-MEL-28 melanoma
[53] = system: HOP-62 NSCLC
[54] = system: OVCAR-3 ovarian
[55] = system: BT-549 breast
[56] = system: OVCAR-5 ovarian
[57] = system: HT29 colon
[58] = system: UACC-257 melanoma

SMILES: COc1ccc([C@H]2C(=O)N(c3cc(OC)c(OC)c(OC)c3)[C@@H]2c2ccc(OC)c(O)c2)cc1
- GI50 [1]: 0.0424 µM
- TGI [1]: > 100 µM
- GI50 [2]: 0.0124 µM
- TGI [2]: 0.0491 µM
- GI50 [3]: 0.0435 µM
- TGI [3]: > 100 µM
- GI50 [4]: 0.0195 µM
- TGI [4]: 0.0513 µM
- GI50 [5]: 0.0324 µM
- TGI [5]: > 100 µM
- GI50 [6]: 17.1 µM
- TGI [6]: > 100 µM
- GI50 [7]: 33.6 µM
- TGI [7]: > 100 µM
- GI50 [8]: 0.0448 µM
- TGI [8]: 26.7 µM
- GI50 [9]: 0.0322 µM
- TGI [9]: > 100 µM
- GI50 [10]: 0.0299 µM
- TGI [10]: > 100 µM
- GI50 [11]: 0.0276 µM
- TGI [11]: > 100 µM
- GI50 [12]: 0.0297 µM
- TGI [12]: 1.85 µM
- GI50 [13]: 0.0261 µM
- TGI [13]: 82.1 µM
- GI50 [14]: 16.2 µM
- TGI [14]: > 100 µM
- GI50 [15]: 0.0422 µM
- TGI [15]: > 100 µM
- GI50 [16]: 0.0464 µM
- TGI [16]: > 100 µM
- GI50 [17]: 0.05 µM
- TGI [17]: > 100 µM
- GI50 [18]: 27.3 µM
- TGI [18]: > 100 µM
- GI50 [19]: 0.0258 µM
- TGI [19]: > 100 µM
- GI50 [20]: 0.0378 µM
- TGI [20]: 72.2 µM
- GI50 [21]: 0.0361 µM
- TGI [21]: 15.5 µM
- GI50 [22]: 0.0535 µM
- TGI [22]: 69.9 µM
- GI50 [23]: 0.0303 µM
- TGI [23]: 0.083 µM
- GI50 [24]: 0.0305 µM
- TGI [24]: > 100 µM
- GI50 [25]: 0.0401 µM
- TGI [25]: > 100 µM
- GI50 [26]: 1.19 µM
- TGI [26]: 78.3 µM
- GI50 [27]: 0.861 µM
- TGI [27]: > 100 µM
- GI50 [28]: 0.0502 µM
- TGI [28]: > 100 µM
- GI50 [29]: 0.0401 µM
- TGI [29]: > 100 µM
- GI50 [30]: 0.0422 µM
- TGI [30]: > 100 µM
- GI50 [31]: 0.0357 µM
- TGI [31]: 34.5 µM
- GI50 [32]: 0.0527 µM
- TGI [32]: > 100 µM
- GI50 [33]: 0.0387 µM
- TGI [33]: 17.3 µM
- GI50 [34]: 0.0365 µM
- TGI [34]: 24.8 µM
- GI50 [35]: 0.0516 µM
- TGI [35]: > 100 µM
- GI50 [36]: 0.0202 µM
- TGI [36]: 0.0429 µM
- GI50 [37]: 0.0327 µM
- TGI [37]: > 100 µM
- GI50 [38]: 1.41 µM
- TGI [38]: > 100 µM
- GI50 [39]: 0.0467 µM
- TGI [39]: 41.2 µM
- GI50 [40]: 0.0298 µM
- TGI [40]: 22.7 µM
- GI50 [41]: 0.049 µM
- TGI [41]: > 100 µM
- GI50 [42]: 0.0216 µM
- TGI [42]: 0.0527 µM
- GI50 [43]: 0.0454 µM
- TGI [43]: > 100 µM
- GI50 [44]: 0.0204 µM
- TGI [44]: 0.0537 µM
- GI50 [45]: 0.0292 µM
- TGI [45]: > 100 µM
- GI50 [46]: 0.0308 µM
- TGI [46]: > 100 µM
- GI50 [47]: 0.0445 µM
- TGI [47]: > 100 µM
- GI50 [48]: 0.0341 µM
- TGI [48]: 17.5 µM
- GI50 [49]: 0.072 µM
- TGI [49]: 38.2 µM
- GI50 [50]: 0.0274 µM
- TGI [50]: 0.0898 µM
- GI50 [51]: 0.0318 µM
- TGI [51]: > 100 µM
- GI50 [52]: 4.03 µM
- TGI [52]: > 100 µM
- GI50 [53]: 0.0562 µM
- TGI [53]: > 100 µM
- GI50 [54]: 0.0635 µM
- TGI [54]: > 100 µM
- GI50 [55]: 0.058 µM
- TGI [55]: 3.83 µM
- GI50 [56]: 0.0459 µM
- TGI [56]: > 100 µM

SMILES: CS(=O)(=O)c1nccc(-c2c(-c3ccc(F)c(OCCc4ccc(F)cc4)c3)nc3sccn23)n1
- GI50 [1]: 5.9 µM
- TGI [1]: 24.6 µM
- GI50 [2]: 11.7 µM
- TGI [2]: 28.1 µM
- GI50 [3]: 13.8 µM
- TGI [3]: 30.6 µM
- GI50 [4]: 17.4 µM
- TGI [4]: 39 µM
- GI50 [5]: 14.9 µM
- TGI [5]: 30 µM
- GI50 [6]: 14.9 µM
- TGI [6]: 30.4 µM
- GI50 [7]: 9.97 µM
- TGI [7]: 21.5 µM
- GI50 [8]: 15.4 µM
- TGI [8]: 35.5 µM
- GI50 [9]: 15.9 µM
- TGI [9]: 29.7 µM
- GI50 [10]: 15.5 µM
- TGI [10]: 33.2 µM
- GI50 [11]: 15 µM
- TGI [11]: 53.8 µM
- GI50 [12]: 15.9 µM
- TGI [12]: 29.3 µM
- GI50 [13]: 13 µM
- TGI [13]: 27.6 µM
- GI50 [14]: 15.1 µM
- TGI [14]: 28.3 µM
- GI50 [15]: 12.5 µM
- TGI [15]: 43.8 µM
- GI50 [16]: 14.3 µM
- TGI [16]: 34.5 µM
- GI50 [17]: 10.9 µM
- TGI [17]: 27.2 µM
- GI50 [18]: 2.7 µM
- TGI [18]: 7.57 µM
- GI50 [19]: 12.3 µM
- TGI [19]: 36.9 µM
- GI50 [21]: 3.48 µM
- TGI [21]: 11.3 µM
- GI50 [22]: 2.74 µM
- TGI [22]: 7.33 µM
- GI50 [23]: 17.1 µM
- TGI [23]: 32.5 µM
- GI50 [24]: 12.5 µM
- TGI [24]: 27.8 µM
- GI50 [25]: 12.7 µM
- TGI [25]: 25.4 µM
- GI50 [26]: 4.7 µM
- TGI [26]: 18.8 µM
- GI50 [27]: 11.4 µM
- TGI [27]: 23.6 µM
- GI50 [28]: 15.7 µM
- TGI [28]: 30.7 µM
- GI50 [29]: 16.1 µM
- TGI [29]: 30.5 µM
- GI50 [30]: 13.5 µM
- TGI [30]: 26.5 µM
- GI50 [31]: 17.2 µM
- TGI [31]: 31.7 µM
- GI50 [32]: 2.07 µM
- TGI [32]: 4.32 µM
- GI50 [33]: 4.34 µM
- TGI [33]: 28.1 µM
- GI50 [34]: 4.25 µM
- TGI [34]: 16.3 µM
- GI50 [57]: 15.2 µM
- TGI [57]: 30.6 µM
- GI50 [35]: 15.2 µM
- TGI [35]: 30.6 µM
- GI50 [36]: 16.5 µM
- TGI [36]: 30.8 µM
- GI50 [37]: 1.85 µM
- TGI [37]: 4.31 µM
- GI50 [38]: 16.4 µM
- TGI [38]: 36.9 µM
- GI50 [39]: 15 µM
- TGI [39]: 29.2 µM
- GI50 [40]: 17 µM
- TGI [40]: 31.6 µM
- GI50 [41]: 13.5 µM
- TGI [41]: 26.4 µM
- GI50 [42]: 3.23 µM
- TGI [42]: 9.31 µM
- GI50 [43]: 15.2 µM
- TGI [43]: 33.9 µM
- GI50 [44]: 15.5 µM
- TGI [44]: 30 µM
- GI50 [45]: 12.9 µM
- TGI [45]: 25.5 µM
- GI50 [46]: 14.2 µM
- TGI [46]: 33.2 µM
- GI50 [47]: 13 µM
- TGI [47]: 28.5 µM
- GI50 [48]: 16.6 µM
- TGI [48]: 30.9 µM
- GI50 [49]: 10.2 µM
- TGI [49]: 21.8 µM
- GI50 [50]: 14.5 µM
- TGI [50]: 35 µM
- GI50 [51]: 17 µM
- TGI [51]: 37.8 µM
- GI50 [52]: 11.9 µM
- TGI [52]: 24.5 µM
- GI50 [58]: 12.3 µM
- TGI [58]: 25.4 µM
- GI50 [53]: 15.3 µM
- TGI [53]: 31.2 µM
- GI50 [54]: 7.11 µM
- TGI [54]: 20.8 µM
- GI50 [55]: 14 µM
- TGI [55]: 27.6 µM
- GI50 [56]: 15.5 µM
- TGI [56]: 30.4 µM

From PubChem BioAssay (NCI)
